Test results as given in ChEMBL document CHEMBL5346975, “Conjugation of Vancomycin with a Single Arginine Improves Efficacy against Mycobacteria by More Effective Peptidoglycan Targeting” (2023).
Converted amounts (≈) assume the structure as drawn. The source made the active and inactive calls. The calls are words filed in the database; no cut-off is given here.

Assays:
Assay type in all cases: functional
[1] = tested on: Mycolicibacterium smegmatis; assay: Antibiofilm activity against Mycobacterium smegmatis 700084 assessed as eradication of preformed bacterial biofilm incubated for 24 hrs by crystal violet staining based assay
[2] = tested on: Mycolicibacterium smegmatis; assay: Antibacterial activity against Mycobacterium smegmatis 700084 assessed as inhibition of bacterial growth incubated for 48 hrs by resazurin dye based broth microdilution method
[3] = tested on: Corynebacterium glutamicum; assay: Antibacterial activity against Corynebacterium glutamicum 13032 assessed as inhibition of bacterial growth incubated for 18 to 20 hrs by broth microdilution method; conditions: time 18-20 hrs
Bacillus subtilis [4] = assay: Antibacterial activity against Bacillus subtilis 23857 assessed as inhibition of bacterial growth incubated for 18 to 20 hrs by broth microdilution method; conditions: time 18-20 hrs
[5] = tested on: Mycobacteroides abscessus; assay: Antibacterial activity against Mycobacterium abscessus 19977 assessed as inhibition of bacterial growth incubated for 72 hrs by resazurin dye based broth microdilution method
Mycobacterium kansasii = assay: Antibacterial activity against Mycobacterium kansasii 12478 assessed as inhibition of bacterial growth incubated for 6 to 7 days by resazurin dye based broth microdilution method; conditions: time 6-7 day
Mycobacterium avium [6] = assay: Antibacterial activity against Mycobacterium avium 25291 assessed as inhibition of bacterial growth incubated for 6 to 7 days by resazurin dye based broth microdilution method; conditions: time 6-7 day
Mycobacterium avium [7] = assay: Antibacterial activity against Mycobacterium avium 700898 assessed as inhibition of bacterial growth incubated for 6 to 7 days by resazurin dye based broth microdilution method; conditions: time 6-7 day
[8] = tested on: Mycolicibacterium smegmatis; assay: Synergistic antibacterial activity against Mycobacterium smegmatis 700084 assessed as fractional inhibitory concentration index incubated for 48 hrs in presence of ethambutol by checkerboard assay
[9] = tested on: Mycobacteroides abscessus; assay: Synergistic antibacterial activity against Mycobacterium abscessus 19977 assessed as fractional inhibitory concentration index incubated for 72 hrs in presence of ethambutol by checkerboard assay
[10] = tested on: Mycolicibacterium smegmatis; assay: Inhibition of peptidoglycan biosynthesis in Mycobacterium smegmatis 700084 assessed as increase in N-glycolyl modified precursor UDP-MurNGlyc-pentapeptide accumulation at 10 uM incubated for 4 hrs by RP-HPLC method
[11] = tested on: Mycobacteroides abscessus; assay: Synergistic antibacterial activity against Mycobacterium abscessus 19977 assessed as test compound MIC incubated for 72 hrs in presence of 39 uM ethambutol by checkerboard assay
[12] = tested on: Mycobacteroides abscessus; assay: Synergistic antibacterial activity against Mycobacterium abscessus 19977 assessed as test compound MIC incubated for 72 hrs in presence of 78 uM ethambutol by checkerboard assay
[13] = tested on: Mycolicibacterium smegmatis; assay: Inhibition of biofilm formation in Mycobacterium smegmatis 700084 assessed as reduction in wrinkled pellicle formation incubated for 5 days; conditions: time 5 day
[14] = tested on: Mycobacteroides abscessus; assay: Antibacterial activity against Mycobacterium abscessus 19977 assessed as elimination of viable bacteria at 2 times MIC measured after 50 hrs by time kill assay relative to control
[15] = tested on: Mycolicibacterium smegmatis; assay: (§1) Antibacterial activity of against Mycobacterium smegmatis 700084 assessed as Ac-Kaa-induced neutralization of antibiotic effect by measuring molar excess ratio of smallest concentration of AC-Kaa required to neutralize antibiotic effect to MIC of antibiotic at 16 uM incubated for 48 hrs by resazurin dye based broth microdilution method
[16] = tested on: Corynebacterium glutamicum; assay: as §1, with “Corynebacterium glutamicum 13032” for “Mycobacterium smegmatis 700084”, “0.25” for “16”
Bacillus subtilis [17] = assay: as §1, with “Bacillus subtilis 23857” for “Mycobacterium smegmatis 700084”, “0.25” for “16”

| SMILES | MBEC [1] | MIC [2] | MIC [3] | MIC (Bacillus subtilis [4]) | MIC [5] | MIC (Mycobacterium kansasii) | MIC (Mycobacterium avium [6]) | MIC (Mycobacterium avium [7]) | fractional inhibitory concentration index (FICI) [8] | fractional inhibitory concentration index (FICI) [9] | inhibition [10] | MIC [11] | MIC [12] | BBC [13] | Activity [14] | Ratio [15] | Ratio [16] | Ratio (Bacillus subtilis [17]) |
| --- | --- | --- | --- | --- | --- | --- | --- | --- | --- | --- | --- | --- | --- | --- | --- | --- | --- | --- |
| CC[C@@H](CO)NCCN[C@@H](CC)CO [ETHAMBUTOL] | >256 µg/mL | – | – | – | – | – | – | – | – | – | – | – | – | – | – | – | – | – |
| CO[C@H]1/C=C/O[C@@]2(C)Oc3c(C)c(O)c4c(O)c(c(/C=N/N5CCN(C)CC5)c(O)c4c3C2=O)NC(=O)/C(C)=C\C=C\[C@H](C)[C@H](O)[C@@H](C)[C@@H](O)[C@@H](C)[C@H](OC(C)=O)[C@@H]1C [RIFAMPIN] | 156 µM | – | – | – | – | – | – | – | – | – | – | – | – | – | – | – | – | – |
| CN[C@H](CC(C)C)C(=O)N[C@H]1C(=O)N[C@@H](CC(N)=O)C(=O)N[C@H]2C(=O)N[C@H]3C(=O)N[C@H](C(=O)N[C@H](C(=O)O)c4cc(O)cc(O)c4-c4cc3ccc4O)[C@H](O)c3ccc(c(Cl)c3)Oc3cc2cc(c3O[C@@H]2O[C@H](CO)[C@@H](O)[C@H](O)[C@H]2O[C@H]2C[C@](C)(N)[C@H](O)[C@H](C)O2)Oc2ccc(cc2Cl)[C@H]1O [VANCOMYCIN] | 64 µM | 8 µM (≈ 11.6 µg/mL) | 0.25 µM (≈ 0.362 µg/mL) | 0.25 µM (≈ 0.362 µg/mL) | 64 µM (≈ 92.8 µg/mL) | 24 µM (≈ 34.8 µg/mL) | > 256 µM | 64 µM (≈ 92.8 µg/mL) | 0.28 | 0.17 | Active | 3 µM | 2 µM | 0.5 µM | >95% | 3.9 | 62.5 | 15.6 |
